Our source for the IC50 values is PubChem BioAssay AID652177 (Vanderbilt Specialized Chemistry Center, 2013).

The term IC50 denotes the midpoint of a concentration-inhibition curve. Low readings indicate higher potency, high ones lower potency.

The target of the assay is High affinity choline transporter 1 (Homo sapiens) (UniProt Q9GZV3). The experiment in a line: inhibition of SLC5A7-mediated choline transport – cell-based, HEK-293 hCHT, [3H]-choline uptake, dose response (AID 652177). As to conditions: 15 min, IC50 at 10 uM choline.
Chain of High affinity choline transporter 1 (Homo sapiens) (Q9GZV3 whole entry, looked up): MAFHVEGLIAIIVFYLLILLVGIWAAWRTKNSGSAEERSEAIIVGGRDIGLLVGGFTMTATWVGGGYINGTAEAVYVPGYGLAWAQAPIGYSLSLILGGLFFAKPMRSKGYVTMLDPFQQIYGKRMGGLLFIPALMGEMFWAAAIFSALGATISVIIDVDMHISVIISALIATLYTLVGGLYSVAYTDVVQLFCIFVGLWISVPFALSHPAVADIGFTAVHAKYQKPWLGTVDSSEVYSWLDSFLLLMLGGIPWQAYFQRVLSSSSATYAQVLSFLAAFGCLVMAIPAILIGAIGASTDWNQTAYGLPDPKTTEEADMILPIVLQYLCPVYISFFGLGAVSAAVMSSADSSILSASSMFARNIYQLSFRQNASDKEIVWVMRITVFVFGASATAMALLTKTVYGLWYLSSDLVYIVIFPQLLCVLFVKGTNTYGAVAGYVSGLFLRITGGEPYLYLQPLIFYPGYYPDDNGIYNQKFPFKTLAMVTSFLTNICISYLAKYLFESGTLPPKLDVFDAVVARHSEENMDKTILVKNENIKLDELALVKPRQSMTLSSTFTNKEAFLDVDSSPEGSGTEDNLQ

In turn, `CCc1cc(CNC(=O)c2ccc(OC)c(OCCN3CCCCC3)c2)on1` came in with an IC50 of 2.21 µM.
